From ChEMBL document CHEMBL1201862, “PubChem BioAssay data set” (2004)
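A five-concentration, 48-hour dose response in 96-well plates underlies each endpoint, interpolated linearly between surrounding concentrations. The concentration for 50% growth inhibition is given as GI50.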 Active and inactive are the calls of the source. Rule as the data show it: active = GI50 up to about 1.1 µM and inactive = higher.

How the values were obtained:
Test in all cases: DTP human tumour cell line panel, 48 h
ACHN = test system: ACHN
COLO 205 = test system: COLO 205
EKVX = test system: EKVX
HCC 2998 = test system: HCC 2998
IGROV-1 = test system: IGROV-1
MCF7 = test system: MCF7
Malme-3M = test system: Malme-3M
NCI-H23 = test system: NCI-H23
NCI/ADR-RES = test system: NCI/ADR-RES
OVCAR-4 = test system: OVCAR-4
OVCAR-5 = test system: OVCAR-5
OVCAR-8 = test system: OVCAR-8
RPMI-8226 = test system: RPMI-8226
RXF 393 = test system: RXF 393
SF-268 = test system: SF-268
SF-295 = test system: SF-295
SK-MEL-28 = test system: SK-MEL-28
SK-MEL-2 = test system: SK-MEL-2
SNB-75 = test system: SNB-75
UACC-62 = test system: UACC-62

**Q.** Which GI50 (ACHN) does the source give for `CC(C)=CCC/C(C)=C/CC/C(C)=C/CC/C(=C/CC/C(C)=C\CC/C(C)=C/CC/C(C)=C/CC/C(C)=C/Cc1cc(O)ccc1O)CO` here?
**A.** 12.4 µM (inactive)

**Q.** What about the GI50 (COLO 205) of the same molecule?
**A.** 2.28 µM (inactive)

**Q.** And the GI50 (EKVX)?
**A.** 12.1 µM (inactive)

**Q.** And the GI50 (HCC 2998)?
**A.** 9.93 µM (inactive)

**Q.** What about the GI50 (IGROV-1) of the same molecule?
**A.** 2.86 µM (inactive)

**Q.** What about the GI50 (MCF7) of the same molecule?
**A.** 2.55 µM (inactive)

**Q.** And the GI50 (Malme-3M)?
**A.** 2.7 µM (inactive)

**Q.** And the GI50 (NCI-H23)?
**A.** 0.979 µM (active)

**Q.** What about the GI50 (NCI/ADR-RES) of the same molecule?
**A.** 4.51 µM (inactive)

**Q.** And the GI50 (OVCAR-4)?
**A.** 2.51 µM (inactive)

**Q.** What about the GI50 (OVCAR-5) of the same molecule?
**A.** 25.4 µM (inactive)

**Q.** What about the GI50 (OVCAR-8) of the same molecule?
**A.** 3.75 µM (inactive)

**Q.** And the GI50 (RPMI-8226)?
**A.** 1.82 µM (inactive)

**Q.** What about the GI50 (RXF 393) of the same molecule?
**A.** 0.483 µM (active)

**Q.** What about the GI50 (SF-268) of the same molecule?
**A.** 2.67 µM (inactive)

**Q.** What about the GI50 (SF-295) of the same molecule?
**A.** 1.84 µM (inactive)

**Q.** And the GI50 (SK-MEL-28)?
**A.** 2.29 µM (inactive)

**Q.** What about the GI50 (SK-MEL-2) of the same molecule?
**A.** 3.32 µM (inactive)

**Q.** And the GI50 (SNB-75)?
**A.** 4.02 µM (inactive)

**Q.** What about the GI50 (UACC-62) of the same molecule?
**A.** 1.18 µM (inactive)

**Q.** With `COc1ccc2c(c1)CCCc1c-2nc2ccccc2c1N` as the molecule, how does the GI50 (ACHN) read?
**A.** 13.6 µM (inactive)

**Q.** What about the GI50 (COLO 205) of the same molecule?
**A.** 1.69 µM (inactive)

**Q.** And the GI50 (EKVX)?
**A.** 6.28 µM (inactive)

**Q.** And the GI50 (HCC 2998)?
**A.** 1.87 µM (inactive)

**Q.** What about the GI50 (IGROV-1) of the same molecule?
**A.** 12.4 µM (inactive)

**Q.** What about the GI50 (MCF7) of the same molecule?
**A.** 11.2 µM (inactive)

**Q.** And the GI50 (Malme-3M)?
**A.** 14.1 µM (inactive)

**Q.** And the GI50 (NCI-H23)?
**A.** 15.4 µM (inactive)

**Q.** And the GI50 (NCI/ADR-RES)?
**A.** 12.9 µM (inactive)

**Q.** What about the GI50 (OVCAR-4) of the same molecule?
**A.** 12.6 µM (inactive)

**Q.** And the GI50 (OVCAR-5)?
**A.** 10.2 µM (inactive)

**Q.** What about the GI50 (OVCAR-8) of the same molecule?
**A.** 12.9 µM (inactive)

**Q.** And the GI50 (RPMI-8226)?
**A.** 5.87 µM (inactive)

**Q.** What about the GI50 (RXF 393) of the same molecule?
**A.** 4.72 µM (inactive)

**Q.** What about the GI50 (SF-268) of the same molecule?
**A.** 15.3 µM (inactive)

**Q.** What about the GI50 (SF-295) of the same molecule?
**A.** 11.1 µM (inactive)

**Q.** And the GI50 (SK-MEL-28)?
**A.** 10.8 µM (inactive)

**Q.** What about the GI50 (SK-MEL-2) of the same molecule?
**A.** 15.7 µM (inactive)

**Q.** What about the GI50 (SNB-75) of the same molecule?
**A.** 10.7 µM (inactive)

**Q.** What about the GI50 (UACC-62) of the same molecule?
**A.** 12.3 µM (inactive)
